From US20100249234A1, “METHODS OF REDUCING VIRULENCE IN BACTERIA” (UWM RESEARCH FOUNDATION, INC., priority 2007, published 2010) come the findings set out here.

Assay type in all cases: cell-based, Dickeya dadantii 3937 (Ech3937)
The test system of assay [1] is mrp promoter. As to the kind of experiment: mrp (reference gene) promoter activity, GFP reporter pmrp, flow cytometry (FACS). To be noted: for GFP intensity (Mean Fluorescence Intensity) of Ech3937 (pmrp): reference gene. How it is done:
(§1) FACS analysis of promoter activity of dspE, hrpA, hrpL, hrpN, and hrpS was carried out as described (Peng et al., 2006). Briefly, the wild-type Ech3937 and the mutant strains carrying the promoter reporter plasmid were grown on LB broth at 28° C. overnight and transferred to appropriate media. For FACS analysis, samples were collected by centrifugation, washed with 1× phosphate buffer saline (PBS) at 13,000 rpm for 1 min, and re-suspended in 1×PBS to ca 10^6 CFU/ml prior to being run in a FACS Calibur flow cytometer (BD Biosciences, CA). Three replicates were performed for each treatment.
(§2) Since OCA and TCA induced the expression of hrpN, the effect of these two phenolic compounds on the expression of hrpA, hrpL, and hrpS was investigated further. […] GFP intensity was determined on gated populations of bacterial cells by flow cytometry and analyzed with the Cell Quest software (BD Biosciences, San Jose, Calif.). The lines labeled “1” stand for the GFP expression control base level of the Ech3937 containing pPROBE-AT vector; lines labeled “2” stand for the promoter activity of hrpS, hrpL, hrpA and hrpN in Ech3937 in MM; lines labeled “3” stand for the promoter activity of Ech3937 in MM supplemented with 0.1 mM OCA; lines labeled “4” stand for the promoter activity of hrpL mutant WPP96 in MM; lines labeled “5” stand for the promoter activity of hrpL mutant WPP96 in MM supplemented with 0.1 mM OCA. Values are representative of at least two experiments. […] Compared with MM alone, the average GFP fluorescence intensity of bacterial cells of Ech3937 (phrpA) was doubled when 0.1 mM of OCA and TCA were added to the medium (Table 4; FIG. 3). […] The mrp, whose protein product has an ATPase conserved domain (2e-06), was used as a reference gene in this study.
Background: In flow cytometry, cells or beads pass a laser one at a time.

In assay [2] the test system is hrpS promoter. As to the kind of experiment: hrpS promoter activity, GFP reporter plasmid phrpS, flow cytometry (FACS). The protocol:
as §1, §2

The test system of assay [3] is hrpL mRNA. As to the kind of experiment: qRT-PCR relative mRNA level of hrpL. The protocol: (§3) Bacterial strains were grown in MM. Total RNA from the bacterial cells was isolated by using the TRI reagent method (Sigma, Mo.) and treated with Turbo DNA-free DNase kits (Ambion, TX) as described (Peng et al., 2006). An iScript cDNA Synthesis Kit (Bio-Rad, CA) was used to synthesize cDNA from 0.5 μg of treated total RNA. The Real Master Mix (Eppendorf, Westbury, N.Y.) was used for qRT-PCR reaction to quantify the cDNA level of target genes in different samples. The rplU was used as the endogenous control for data analysis. qRT-PCR data were analyzed using Relative Expression Software Tool as described (Pfaffl, M. W., Horgan, G. W., and Dempfle, L. (2002) Relative expression software tool (REST) for group-wise comparison and statistical analysis of relative expression results in real-time PCR. Nucleic Acids Res 30:e36.).
In general terms: In qPCR the cycle at which signal appears reflects the starting amount.

The test system of assay [4] is Ech3937. As to the kind of experiment: Growth of Ech3937 in MM supplemented with compound. The text has this: Phenolic compounds constitute an important class of organic substances produced by plants. The phenolic compound SA is a signaling molecule that plays a role in host defenses. OCA and TCA are the biosynthetic precursors of SA and are also reported to induce the expression of defense-related genes in plants. OCA, TCA, and SA were examined to elucidate their effects on the expression of T3SS genes. The expression of the T3SS gene hrpN was examined in MM and MM supplemented with OCA, TCA, and SA, at concentrations of 0.05, 0.1, and 0.2 mM, respectively. FIGS. 2A and 2B show the promoter activities of hrpN in Dickeya dadantii 3937 (Ech3937) grown in MM and MM supplemented with 0.05, 0.1, and 0.2 mM OCA, TCA, and SA at 12 h (FIG. 2A) and 24 h (FIG. 2B) post-inoculation. GFP intensity was determined on gated populations of bacterial cells by flow cytometry and analyzed with the Cell Quest software (BD Biosciences, San Jose, Calif.). The growth of Ech3937 in MM supplemented with different concentrations of OCA, TCA and SA was recorded. Compared with MM alone, the average GFP fluorescence intensity of bacterial cells of Ech3937 (phrpN) was increased approximately 4-fold when 0.05 mM of OCA and TCA were added to the medium (FIGS. 2A, 2B).
The expression of the T3SS gene hrpA was further examined in MM and MM supplemented with PCA at concentrations of 0.001, 0.005, 0.01, 0.05 and 0.1 mM respectively. FIGS. 16A and 16B show the promoter activities of hrpA in Dickeya dadantii 3937 (Ech3937) grown in minimum medium (MM) and MM supplemented with different amount of p-coumaric acid (PCA) at 12 h (FIG. 16A) and 24 h (FIG. 16B) post-inoculation. GFP intensity was determined on gated populations of bacterial cells by flow cytometry and analyzed with the Cell Quest software (BD Biosciences, San Jose, Calif.). The growth of Ech3937 in MM supplemented with different concentrations of PCA was recorded. Compared with MM alone, the average GFP fluorescence intensity of bacterial cells of Ech3937 (phrpA) was reduced more than 4-fold when 0.05 and 0.1 mM of PCA were added to the medium (FIGS. 16A, 16B).

The test system of assay [5] is hrpA mRNA. As to the kind of experiment: qRT-PCR relative mRNA level of hrpA. The protocol:
as §3

For assay [6], the system named is hrpS mRNA. As to the kind of experiment: qRT-PCR relative mRNA level of hrpS. How it is done: as §3
Assay [7] deals with pPROBE-AT vector. As to the kind of experiment: GFP expression control base level, pPROBE-AT vector, flow cytometry (FACS). The protocol: as §1, §2
For assay [8], the system named is rsmB mRNA. As to the kind of experiment: qRT-PCR relative mRNA level of rsmB. The protocol: as §3
Assay [9] relates to dspE mRNA. As to the kind of experiment: qRT-PCR relative mRNA level of dspE. How it is done: as §3
The mark [10] stands for this setting: MM + 0.1 mM compound, 12 h (Table 4).
[11] abbreviates: MM supplemented with 0.1 mM OCA (FIG. 4).
The mark [12] stands for this setting: MM + 0.1 mM PCA, 12 h (Table 10).
The mark [13] stands for this setting: MM + 0.1 mM PCA, 24 h (Table 10).
Setting [14] is: MM supplemented with PCA vs MM alone (normalized to 1), P=0.001.

With `O=C(O)/C=C/c1ccccc1O` [OCA, o-coumaric acid], the “mrp expression in Ech3937 (pmrp) compared with MM” value in assay [1] (MM + 0.1 mM compound, 12 h) is on record as “slightly higher mrp expression”. Moreover, in assay [1] (setting [10]), the “GFP intensity (Mean Fluorescence Intensity) of Ech3937 (pmrp)” value was 97.7 ± 1.6. Besides, the “GFP intensity of Ech3937 (phrpS) compared with MM alone” value in assay [2] (MM + 0.1 mM compound, 12 h) is listed as “slightly lower GFP intensity”. Also, the “GFP intensity (Mean Fluorescence Intensity) of Ech3937 (phrpS)” value in assay [2] (setting [10]) is listed as 56 ± 1. For the same compound, the “GFP intensity (Mean Fluorescence Intensity) of WPP96 (phrpS)” value in [2] (hrpL mutant WPP96, MM + 0.1 mM compound, 12 h (Table 4)) turned out to be 350 ± 17. In assay [3] (0.1 mM OCA, 12 h of growth, P<0.01), the “hrpL mRNA compared with MM alone (qRT-PCR)” value is on record as “about 3 fold”. Also, the “bacterial growth of Ech3937 in supplemented MM” value in assay [4] (0.05, 0.1 and 0.2 mM in MM (FIGS. 2A, 2B)) is on record as “No reduction of bacterial growth”. The “hrpA mRNA compared with MM alone (qRT-PCR)” value in assay [5] (setting [11]) was “significantly higher amount”. For the same compound, the “hrpS gene expression, MM vs supplemented MM (qRT-PCR)” value in assay [6] (MM supplemented with OCA, p>0.5 (FIG. 4)) is given as “No significant difference”. In addition, the “GFP intensity (Mean Fluorescence Intensity) of Ech3937 (pPROBE-AT)” value in assay [7] (MM + 0.1 mM OCA, 6 h) was 2.0 ± 0; in [7] (MM + 0.1 mM OCA, 12 h) it was 2.0 ± 0; in assay [7] (MM + 0.1 mM OCA, 24 h), 1.9 ± 0; in assay [7] (setting [10]) it was 2.0 ± 0. In addition, in assay [8] (Ech3937 in supplemented MM vs MM alone (normalized to 1)), the “rsmB mRNA relative expression ratio” value is recorded as 1.4. For the same compound, in assay [9] (setting [11]), the “dspE mRNA compared with MM alone (qRT-PCR)” value is “significantly higher amount”.

Take `O=C(O)/C=C/c1ccc(O)cc1` [PCA, p-coumaric acid]: the “GFP intensity (Mean Fluorescence Intensity) of Ech3937 (pmrp)” value in [1] (setting [12]) turned out to be 124.1 ± 2.7; in assay [1] (setting [13]), 98.9 ± 1.0. For the same compound, the “GFP intensity (Mean Fluorescence Intensity) of Ech3937 (phrpS)” value in assay [2] (MM + 0.1 mM PCA (MMPCA), 12 h (Table 10)) was 37.9 ± 1.3; in [2] (MM + 0.1 mM PCA (MMPCA), 24 h (Table 10)), 43.6 ± 2.6. Moreover, in [3] (setting [14]), the “hrpL mRNA relative expression ratio” value amounted to 0.039. Besides, the “bacterial growth of Ech3937 in MM with PCA” value in assay [4] (PCA 0.001 to 0.1 mM in MM (FIGS. 16A, 16B)) is “Inhibition of bacterial growth was not observed”. The “hrpA mRNA compared with MM alone (normalized to 1), qRT-PCR” value in assay [5] (0.1 mM PCA, P=0.001 (FIG. 14)) is “significantly lower amount of mRNA”. For the same compound, the “hrpS mRNA relative expression ratio” value in [6] (setting [14]) came out at 0.223. For the same compound, the “GFP intensity (Mean Fluorescence Intensity) of Ech3937 (pPROBE-AT)” value in assay [7] (setting [12]) was 2.2 ± 0.2; in assay [7] (MM + 0.1 mM PCA, 12 h (Table 11)) it was 2.3 ± 0.1; in assay [7] (setting [13]), 14.0 ± 10.1; in [7] (MM + 0.1 mM PCA, 24 h (Table 11)) it was 4.9 ± 0.1. Further, the “rsmB gene expression, MM vs supplemented MM (qRT-PCR)” value in assay [8] (MM supplemented with PCA, p=0.928 (FIG. 14)) is “No significant difference”. For the same compound, in assay [9] (0.1 mM PCA, P=0.001 (FIG. 14)), the “dspE mRNA compared with MM alone (normalized to 1), qRT-PCR” value is “significantly lower amount of mRNA”.
